Counter-ions that a name gives are not always drawn.
System: CuFi-1 cells
Test: Secretory activity for chloride ions (MQAE fluorescence) in CuFi-1 cells
Type: cell-based
Conditions: Homo sapiens, CuFi-1, CuFi-1 cells, zinc final concentration 10 μM
Procedure: Measurement of the secretory activity for chloride ions was performed in accordance with a previous report (West and Molloy, 1996). CuFi-1 cells were plated on a 96 well plate in 3×10^4 cells/well and incubated for two nights. After removing the culture medium, 100 μL/well of N-(ethoxycarbonylmethyl)-6-methoxyquinolinium bromide (MQAE) (diluted with culture medium and the concentration adjusted to 5 mM) was added. After the addition of MQAE, the cells were incubated for one night so that the indicator was passively loaded. After the loading, the cells were washed two times with Assay buffer, and 100 μL/well of Assay buffer was added. The secretory capacity for chloride ions was measured using FlexStation 1 (fluorescence wavelength of Ex: 355 nm/Em: 460 nm). In order to measure the basic value, nothing was added for 34 seconds immediately after the start of the measurement. Then, at this point, 100 μL/well of the test compound and zinc (final concentration: 10 μM) diluted with Assay buffer, which is free of chloride ions, was added, and the measurement was continued for 86 seconds (total measurement time: 120 seconds). The secretory capacity for chloride ions was calculated by dividing the average of RFU values in 10 seconds between 110 seconds and 120 seconds after the start of the measurement with the average between 0 second and 34 seconds (the basic value). The secretory activity for chloride ions of the test compound (EC50 value) was calculated by obtaining the secretory capacity for chloride ions at each concentration of the serially diluted test compound, and determining a concentration of the test compound that provides a secretory capacity of 50% from two secretory capacities and concentrations sandwiching 50% of the maximum response of each compound.

Point of comparison: `Cc1nc(C(=O)O)nc(OCc2ccncc2)c1Cc1ccccc1Cl` [Example 94], EC50 2.2 nM. Against it:
- CCOc1nc(C(=O)O)nc(C)c1Cc1ccc(F)cc1Cl [Example 49] — 11-fold higher, 24.8 nM
- CCOc1nc(C(=O)O)nc(C)c1Cc1cccc(Cl)c1Cl [Example 50] — 4.6-fold higher, 10.2 nM
- CCOc1nc(C(=O)O)nc(CC)c1Cc1ccc(Cl)cc1F [Example 51] — 3.7-fold higher, 8.2 nM
- CCOc1nc(C(=O)O)nc(C)c1Cc1ccccc1Cl [Example 52, 5-(2-Chlorobenzyl)-4-ethoxy-6-methylpyrimidine-2-carboxylic acid hydrochloride] — 7.2-fold higher, 15.8 nM
- CCCOc1nc(C(=O)O)nc(C)c1Cc1ccccc1Cl [Example 53] — 7.2-fold higher, 15.8 nM
- CCOc1nc(C(=O)O)nc(C)c1Cc1ccc(Cl)cc1F [Example 56] — 7.3-fold higher, 16 nM
- CCOc1nc(C(=O)O)nc(C)c1Cc1ccc(OC)cc1Cl [Example 57] — 9.5-fold higher, 20.8 nM
- CCCc1nc(C(=O)O)nc(OCC)c1Cc1ccc(Cl)cc1F [Example 58] — 5.9-fold higher, 13 nM
- CCOc1nc(C(=O)O)nc(CC)c1Cc1cccc(Cl)c1F [Example 60] — 5.5-fold higher, 12 nM
- CCOc1nc(C(=O)O)nc(CC)c1Cc1cccc(F)c1Cl [Example 61] — 5.2-fold higher, 11.4 nM
- CCOc1nc(C(=O)O)nc(CC)c1Cc1ccccc1Cl [Example 62] — 2.2-fold higher, 4.9 nM
- CCc1nc(C(=O)O)nc(OCCCF)c1Cc1ccccc1Cl [Example 63] — 2.2-fold higher, 4.8 nM
- CCCOc1nc(C(=O)O)nc(CC)c1Cc1ccccc1Cl [Example 64] — 6.8-fold higher, 14.9 nM
- COc1nc(C(=O)O)nc(C)c1Cc1cccc(Cl)c1Cl [Example 66] — 7.9-fold higher, 17.4 nM
- COc1ccc(Cc2c(C)nc(C(=O)O)nc2OC)c(Cl)c1 [Example 67] — 7.2-fold higher, 15.9 nM
- COc1nc(C(=O)O)nc(C)c1Cc1ccc(C(F)(F)F)cc1Cl [Example 68] — 1.8-fold higher, 4 nM
- COc1nc(C(=O)O)nc(C)c1Cc1ccc(F)cc1Cl [Example 69] — 12-fold higher, 26.7 nM
- COc1nc(C(=O)O)nc(C(C)C)c1Cc1ccccc1Cl [Example 70] — 27-fold higher, 59.9 nM
- COc1nc(C(=O)O)nc(C(C)C)c1Cc1ccc(Cl)cc1Cl [Example 71] — 14-fold higher, 30.2 nM
- COc1nc(C(=O)O)nc(C(C)C)c1Cc1ccc(C(F)(F)F)cc1Cl [Example 72] — within 1.5-fold, 2.6 nM
- COc1nc(C(=O)O)nc(C)c1Cc1ccccc1C(C)C [Example 73] — 16-fold higher, 35.2 nM
- Cc1nc(C(=O)O)nc(OC(C)C)c1Cc1ccccc1Cl [Example 74, 5-(2-Chlorobenzyl)-4-isopropoxy-6-methylpyrimidine-2-carboxylic acid] — 15-fold higher, 33.4 nM
- CSc1nc(C(=O)O)nc(C)c1Cc1ccc(Cl)cc1Cl [Example 75, 5-(2,4-Dichlorobenzyl)-4-methyl-6-(methylthio)pyrimidine-2-carboxylic acid] — 1.7-fold higher, 3.7 nM
- CSc1nc(C(=O)O)nc(C)c1Cc1ccccc1Cl [Example 76] — 6.9-fold higher, 15.2 nM
- CCc1nc(C(=O)O)nc(SC)c1Sc1ccc(Cl)cc1Cl [Example 77] — 6.6-fold higher, 14.6 nM
- CCc1nc(C(=O)O)nc(SC)c1Cc1ccccc1Cl [Example 78] — 2.1-fold higher, 4.6 nM
- CCSc1nc(C(=O)O)nc(C)c1Cc1ccc(Cl)cc1Cl [Example 79, 5-(2,4-Dichlorobenzyl)-4-(ethylthio)-6-methylpyrimidine-2-carboxylic acid] — 3-fold higher, 6.6 nM
- CCSc1nc(C(=O)O)nc(C)c1Oc1ccc(Cl)cc1Cl [Example 80] — 22-fold higher, 49.4 nM
- CCSc1nc(C(=O)O)nc(C)c1Cc1ccc(C#N)cc1Cl [Example 81] — 2.5-fold higher, 5.5 nM
- Cc1nc(C(=O)O)nc(SCCO)c1Sc1ccc(Cl)cc1Cl [Example 82] — 14-fold higher, 30.8 nM
- Cc1nc(C(=O)O)nc(SC(C)C)c1Sc1ccccc1Cl [Example 83, 5-((2-Chlorophenyl)thio)-4-(isopropylthio)-6-methylpyrimidine-2-carboxylic acid hydrochloride] — 23-fold higher, 50.7 nM
- Cc1nc(C(=O)O)nc(SC(C)C)c1Cc1ccccc1Cl [Example 84] — 4.7-fold higher, 10.4 nM
- CSc1nc(C(=O)O)nc(C)c1Nc1ccccc1Cl [Example 85, 5-((2-Chlorophenyl)amino)-4-methyl-6-(methylthio)pyrimidine-2-carboxylic acid hydrochloride] — 14-fold higher, 30.2 nM
- CCNc1nc(C(=O)O)nc(C)c1Nc1ccccc1Cl [Example 86, 5-((2-Chlorophenyl)amino)-4-(ethylamino)-6-methylpyrimidine-2-carboxylic acid hydrochloride] — 6-fold higher, 13.1 nM
- CNc1nc(C(=O)O)nc(C)c1Cc1ccccc1Cl [Example 87, 5-(2-Chlorobenzyl)-4-methyl-6-(methylamino)pyrimidine-2-carboxylic acid] — 3.7-fold higher, 8.2 nM
- Cc1nc(C(=O)O)nc(Cc2ccccc2Cl)c1Cc1ccccc1Cl [Example 88, 4,5-Bis(2-chlorobenzyl)-6-methylpyrimidine-2-carboxylic acid] — 3.2-fold higher, 7.1 nM
- Cc1nc(C(=O)O)nc(OCc2cccc(C#N)c2)c1Cc1ccccc1Cl [Example 89, 5-(2-Chlorobenzyl)-4-((3-cyanobenzyl)oxy)-6-methylpyrimidine-2-carboxylic acid] — 2.3-fold higher, 5.1 nM
- Cc1nc(C(=O)O)nc(OCc2ccccc2)c1Cc1ccccc1Cl [Example 90] — 2.9-fold higher, 6.4 nM
- Cc1nc(C(=O)O)nc(O[C@H]2C[C@H](C#N)C2)c1Cc1ccccc1Cl [Example 91] — 6-fold higher, 13.2 nM
- Cc1nc(C(=O)O)nc(O[C@H]2C[C@@H](C#N)C2)c1Cc1ccccc1Cl [Example 92] — 2.3-fold higher, 5.1 nM
- Cc1nc(C(=O)O)nc(OCc2cccnc2)c1Cc1ccccc1Cl [Example 93] — the same, 2.2 nM
- Cc1nc(C(=O)O)nc(OCc2ccccn2)c1Cc1ccccc1Cl [Example 95] — within 1.5-fold, 3.3 nM
- Cc1ccc(COc2nc(C(=O)O)nc(C)c2Cc2ccccc2Cl)cn1 [Example 96] — within 1.5-fold, 2.4 nM
- Cc1nc(C(=O)O)nc(OCc2ccc(F)cc2)c1Cc1ccccc1Cl [Example 97] — 2.6-fold higher, 5.7 nM
- Cc1nc(C(=O)O)nc(OCc2cccc(F)c2)c1Cc1ccccc1Cl [Example 98] — 6.1-fold higher, 13.5 nM
- Cc1nc(C(=O)O)nc(OCc2ccccc2F)c1Cc1ccccc1Cl [Example 99] — 2.3-fold higher, 5.1 nM
- Cc1nc(C(=O)O)nc(OCc2ccc(F)cc2F)c1Cc1ccccc1Cl [Example 100] — 5-fold higher, 11.1 nM
- Cc1nc(C(=O)O)nc(CCc2ccncc2)c1Cc1ccccc1Cl [Example 101, 5-(2-Chlorobenzyl)-4-methyl-6-(2-(pyridin-4-yl)ethyl)pyrimidine-2-carboxylic acid] — 4-fold higher, 8.9 nM
- Cc1nc(C(=O)O)nc(CCc2cccnc2)c1Cc1ccccc1Cl [Example 102] — 2.4-fold higher, 5.2 nM
- Cc1nc(C(=O)O)nc(C)c1Cc1ccccc1Cl [Example 103, 5-(2-Chlorobenzyl)-4,6-dimethylpyrimidine-2-carboxylic acid] — 9.5-fold higher, 20.8 nM
- Cc1nc(C(=O)O)nc(C)c1Cc1ccc(Cl)cc1Cl [Example 104] — 4.5-fold higher, 9.9 nM
- CNc1nc(-c2nnn[nH]2)nc(C)c1Cc1ccc(Cl)cc1Cl [Example 105, 5-(2,4-Dichlorobenzyl)-N,6-dimethyl-2-(1H-tetrazol-5-yl)pyrimidin-4-amine] — within 1.5-fold, 2.1 nM
- CNc1nc(-c2nnn[nH]2)nc(C)c1Sc1ccc(Cl)cc1Cl [Example 106] — within 1.5-fold, 2.9 nM
